# Laboratory results as given in patent US11419806B2, “Prebiotic oral care methods using a saccharide” (Colgate-Palmolive Company, priority 2013, dated 2022).
# Legend:
# Format in all cases: cell-based
# Tannerella forsythia = experiment: Twenty-four hour optical density growth in BHI; details: T forsythia
# Description: (§1) The extent of growth of the tested bacteria in response to selected saccharides (myo-inositol, D-lactitol, D-turanose and N-acetyl-D-mannosamine) was investigated by setting up growth curves in a nutritionally rich medium (brain heart infusion broth (BHI), Oxoid), over 24 hours. Late exponential growth phase liquid cultures were prepared by transferring the respective bacterium from blood agar plates to BHI and overnight incubation at 37° C. in an anaerobic atmosphere for A. viscosus, V. parvula, F. nucleatum, P. gingivalis, P. intermedia, T. forsythia, A. naeslundii, and C. sputigena, and in a 5% CO2 environment for S. salivarius, S. sanguinis, S. mitis, A. actinomycetemcomitans, S. mutans, S. sobrinus and S. gordonii. Overnight cultures were transferred to BHI and adjusted to a concentration of 1×10^7 CFU/ml (colony forming units per ml) by measuring the optical density at 600 nm (OD600) (BioRad SmartSpec 3000). For each strain, 200 μl of the bacterial suspension was added to a 96-well plate containing 20 μl of the respective saccharides. Final concentrations of the saccharides were set to 5, 10, 20 and 25 μmol/ml. […] Plates were incubated as previously described.
# (§2) For each combination of bacterium/saccharide, and for each of their respective controls (i.e. the particular bacterium in the nutritionally rich medium with no saccharide), the optical density was measured at 630 nm (OD630) at 0 h and 24 h (Thermo Scientific Multiskan Ascent). Additionally, the OD630 for combinations of bacterium/saccharides grown in a 5% CO2 environment were also measured every hour between 0 h and 9 h.
# (§3) The experiment was carried out on three different days (thus providing 3 biological replicas) and on each day the experiment was carried out in quadruple (thus providing 4 technical replicas) for each combination of bacterium with saccharide and for each control. For each day and for each combination, the average (mean) of the values obtained (as detailed above) for the four technical replicas was calculated to provide a single value for each combination on each day. The values shown in Tables 5a,b to 6a,b, below, are the average (mean) of the three single values obtained for each combination of bacterium with saccharide.
# Streptococcus mutans = experiment: Twenty-four hour optical density growth in BHI; details: S mutans
# Description: as §1, §2, §3
# Porphyromonas gingivalis = experiment: Twenty-four hour optical density growth in BHI; details: P gingivalis
# Description: as §1, §2, §3
# Fusobacterium nucleatum = experiment: Twenty-four hour optical density growth in BHI; details: F nucleatum
# Description: as §1, §2, §3
# Actinomyces naeslundii = experiment: Twenty-four hour optical density growth in BHI; details: A naeslundii
# Description: as §1, §2, §3
# Capnocytophaga sputigena = experiment: Twenty-four hour optical density growth in BHI; details: C sputigena
# Description: as §1, §2, §3
# Streptococcus gordonii = experiment: Twenty-four hour optical density growth in BHI; details: S gordonii
# Description: as §1, §2, §3
# Actinomyces viscosus = experiment: Twenty-four hour optical density growth in BHI; details: A viscosus
# Description: as §1, §2, §3
# [1] = test system: beneficial oral bacteria and pathogenic oral bacteria; experiment: Twenty-four hour biofilm growth, overall prebiotic assessment; details: concentrations of 5, 10, 20 and 25 μmol/ml
# From the text: Substrates that were able to increase the biofilm mass of at least one of the above beneficial bacteria while not or only minimally increasing the biofilm mass of the pathogenic bacteria are considered to be prebiotic compounds.
# The increase in biofilm formation of the tested bacteria in response to selected saccharides (D-turanose, D-lactitol, myo-inositol, and N-acetyl-D-mannosamine) was investigated by setting up biofilm growth assays in a nutritionally rich medium (brain heart infusion broth (BHI), Oxoid), over 24 hours. Late exponential growth phase liquid cultures were prepared by transferring the respective bacterium from blood agar plates to BHI and overnight incubation at 37° C. in an anaerobic atmosphere for A. viscosus, V. parvula, P. gingivalis, P. intermedia, T. forsythia, A. naeslundii, and C. sputigena, and in a 5% CO2 environment for S. salivarius, S. sanguinis, S. mitis, A. actinomycetemcomitans, S. mutans, and S. gordonii. Overnight cultures were transferred to BHI and adjusted to a concentration of 1×10^7 CFU/ml by measuring the optical density at 600 nm (OD600) (BioRad SmartSpec 3000). For each strain, 200 μl of the bacterial suspension was added to a 96-well plate containing 20 μl of the respective saccharides. Final concentrations of the saccharides were set to 5, 10, 20 and 25 μmol/ml. […] Additionally, for each bacterium tested, a background control, to correct for background staining, was added. This background control contained the bacterium tested and 0.03 weight % chlorhexidine, as an antiseptic. Plates were incubated as previously described. After 24 hrs the supernatant was removed from the wells of the plates. The wells were washed twice with 1×100 μL PBS (phosphate buffered saline), fixed for 20 minutes with 96% vol. ethanol (96% vol. solution in water) and the biofilm retained at the bottom of the wells was stained with 1 weight % crystal violet (1 weight % solution in water). The bound dye was dissolved with 5% vol. acetic acid (5% vol. solution in water). Quantification of the stained biofilm was performed by measuring the absorbance at 630 nm using a Multiskan Ascent microplate reader (Thermo Scientific).
# as §3, with “and” for “and on”, “7a, 7b, 8a, 8b,” for “5a,b to 6a,b,”, “saccharide. […]” for “saccharide.”
smiles,measurement,setting,value
"O[C@H]1[C@H](O)[C@@H](O)[C@H](O)[C@@H](O)[C@H]1O [Myo-Inositol, (1R,2R,3S,4S,5R,6S)-cyclohexane-1,2,3,4,5,6-hexol]",extent of growth: maximal OD630 over 24 hr divided by maximal OD of control (control = 1),Tannerella forsythia; 5 μmol/ml,0.9323
same,extent of growth: maximal OD630 over 24 hr divided by maximal OD of control (control = 1),Tannerella forsythia; 10 μmol/ml,0.9359
same,extent of growth: maximal OD630 over 24 hr divided by maximal OD of control (control = 1),Tannerella forsythia; 20 μmol/ml,0.9286
same,extent of growth: maximal OD630 over 24 hr divided by maximal OD of control (control = 1),Tannerella forsythia; 25 μmol/ml,0.9460
same,extent of growth: maximal OD630 over 24 hr divided by maximal OD of control (control = 1),Streptococcus mutans; 5 μmol/ml,1.1065
same,extent of growth: maximal OD630 over 24 hr divided by maximal OD of control (control = 1),Streptococcus mutans; 10 μmol/ml,1.0553
same,extent of growth: maximal OD630 over 24 hr divided by maximal OD of control (control = 1),Streptococcus mutans; 20 μmol/ml,0.9645
same,extent of growth: maximal OD630 over 24 hr divided by maximal OD of control (control = 1),Streptococcus mutans; 25 μmol/ml,0.9449
same,extent of growth: maximal OD630 over 24 hr divided by maximal OD of control (control = 1),Porphyromonas gingivalis; 5 μmol/ml,1.0200
same,extent of growth: maximal OD630 over 24 hr divided by maximal OD of control (control = 1),Porphyromonas gingivalis; 10 μmol/ml,1.0126
same,extent of growth: maximal OD630 over 24 hr divided by maximal OD of control (control = 1),Porphyromonas gingivalis; 20 μmol/ml,0.9758
same,extent of growth: maximal OD630 over 24 hr divided by maximal OD of control (control = 1),Porphyromonas gingivalis; 25 μmol/ml,0.9855
same,extent of growth: maximal OD630 over 24 hr divided by maximal OD of control (control = 1),Fusobacterium nucleatum; 5 μmol/ml,0.9430
same,extent of growth: maximal OD630 over 24 hr divided by maximal OD of control (control = 1),Fusobacterium nucleatum; 10 μmol/ml,0.9489
same,extent of growth: maximal OD630 over 24 hr divided by maximal OD of control (control = 1),Fusobacterium nucleatum; 20 μmol/ml,0.9512
same,extent of growth: maximal OD630 over 24 hr divided by maximal OD of control (control = 1),Fusobacterium nucleatum; 25 μmol/ml,0.9518
same,extent of growth: maximal OD630 over 24 hr divided by maximal OD of control (control = 1),Actinomyces naeslundii; 5 μmol/ml,1.0172
same,extent of growth: maximal OD630 over 24 hr divided by maximal OD of control (control = 1),Actinomyces naeslundii; 10 μmol/ml,1.0190
same,extent of growth: maximal OD630 over 24 hr divided by maximal OD of control (control = 1),Actinomyces naeslundii; 20 μmol/ml,1.0051
same,extent of growth: maximal OD630 over 24 hr divided by maximal OD of control (control = 1),Actinomyces naeslundii; 25 μmol/ml,1.0000
same,extent of growth: maximal OD630 over 24 hr divided by maximal OD of control (control = 1),Capnocytophaga sputigena; 5 μmol/ml,0.8701
same,extent of growth: maximal OD630 over 24 hr divided by maximal OD of control (control = 1),Capnocytophaga sputigena; 10 μmol/ml,0.8749
same,extent of growth: maximal OD630 over 24 hr divided by maximal OD of control (control = 1),Capnocytophaga sputigena; 20 μmol/ml,0.8545
same,extent of growth: maximal OD630 over 24 hr divided by maximal OD of control (control = 1),Capnocytophaga sputigena; 25 μmol/ml,0.8789
same,extent of growth: maximal OD630 over 24 hr divided by maximal OD of control (control = 1),Streptococcus gordonii; 5 μmol/ml,0.9888
same,extent of growth: maximal OD630 over 24 hr divided by maximal OD of control (control = 1),Streptococcus gordonii; 10 μmol/ml,0.9732
same,extent of growth: maximal OD630 over 24 hr divided by maximal OD of control (control = 1),Streptococcus gordonii; 20 μmol/ml,0.9751
same,extent of growth: maximal OD630 over 24 hr divided by maximal OD of control (control = 1),Streptococcus gordonii; 25 μmol/ml,0.9954
same,extent of growth: maximal OD630 over 24 hr divided by maximal OD of control (control = 1),Actinomyces viscosus; 5 μmol/ml,0.8442
same,extent of growth: maximal OD630 over 24 hr divided by maximal OD of control (control = 1),Actinomyces viscosus; 10 μmol/ml,0.8574
same,extent of growth: maximal OD630 over 24 hr divided by maximal OD of control (control = 1),Actinomyces viscosus; 20 μmol/ml,0.8079
same,extent of growth: maximal OD630 over 24 hr divided by maximal OD of control (control = 1),Actinomyces viscosus; 25 μmol/ml,0.7647
same,"prebiotic effects (biofilm growth, threshold value 1.6)",[1],exhibited prebiotic effects
